Measurements taken from ChEMBL document CHEMBL1201862, “PubChem BioAssay data set” (2004).
The source made the active and inactive calls.

Legend:
[1] = biological target: T1, Corticotropin-releasing factor receptor 2/Corticotropin-releasing factor-binding protein (Homo sapiens, UniProt P24387+Q13324); experiment: activators of CRF receptor 2 with binding protein – uHTS hits, confirmation (AID 602473); assay type: functional; conditions: read-out: EC50_Mean
T1 sequence (Q13324 whole entry): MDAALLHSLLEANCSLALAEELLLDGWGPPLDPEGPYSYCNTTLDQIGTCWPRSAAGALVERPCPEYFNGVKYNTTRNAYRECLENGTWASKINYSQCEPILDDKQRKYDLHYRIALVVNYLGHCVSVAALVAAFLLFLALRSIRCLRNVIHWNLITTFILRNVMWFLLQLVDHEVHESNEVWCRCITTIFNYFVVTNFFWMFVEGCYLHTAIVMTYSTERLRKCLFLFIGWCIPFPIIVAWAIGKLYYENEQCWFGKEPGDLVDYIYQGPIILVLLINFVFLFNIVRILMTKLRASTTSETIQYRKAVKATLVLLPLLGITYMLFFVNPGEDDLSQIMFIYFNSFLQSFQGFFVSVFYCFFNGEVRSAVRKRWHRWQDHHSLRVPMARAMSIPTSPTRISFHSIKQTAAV
T1 sequence (P24387 whole entry): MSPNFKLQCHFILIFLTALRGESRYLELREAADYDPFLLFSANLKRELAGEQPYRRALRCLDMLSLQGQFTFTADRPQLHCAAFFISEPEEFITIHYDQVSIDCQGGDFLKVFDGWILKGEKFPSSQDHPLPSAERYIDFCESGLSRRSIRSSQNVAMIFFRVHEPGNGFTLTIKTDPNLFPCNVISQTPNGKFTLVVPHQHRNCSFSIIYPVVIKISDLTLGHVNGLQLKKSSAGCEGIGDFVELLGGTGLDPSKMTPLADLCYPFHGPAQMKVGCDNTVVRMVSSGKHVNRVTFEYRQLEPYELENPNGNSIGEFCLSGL

[2] = biological target: T1, Corticotropin-releasing factor receptor 2/Corticotropin-releasing factor-binding protein; experiment: Dose Response confirmation of uHTS hits for small molecule antagonists of the CRF-binding protein and CRF-R2 receptor complex.; assay type: functional; conditions: read-out: IC50_Mean
Leucine aminopeptidase = biological target: T2, Leucine aminopeptidase (Plasmodium falciparum 3D7, UniProt Q8IL11); experiment: P. falciparum M17LAP inhibitors, primary screen, biochemical, fluorogenic H-Leu-NHMec substrate, 1536-well (AID 1619); assay type: functional
T2 sequence (Q8IL11 whole entry): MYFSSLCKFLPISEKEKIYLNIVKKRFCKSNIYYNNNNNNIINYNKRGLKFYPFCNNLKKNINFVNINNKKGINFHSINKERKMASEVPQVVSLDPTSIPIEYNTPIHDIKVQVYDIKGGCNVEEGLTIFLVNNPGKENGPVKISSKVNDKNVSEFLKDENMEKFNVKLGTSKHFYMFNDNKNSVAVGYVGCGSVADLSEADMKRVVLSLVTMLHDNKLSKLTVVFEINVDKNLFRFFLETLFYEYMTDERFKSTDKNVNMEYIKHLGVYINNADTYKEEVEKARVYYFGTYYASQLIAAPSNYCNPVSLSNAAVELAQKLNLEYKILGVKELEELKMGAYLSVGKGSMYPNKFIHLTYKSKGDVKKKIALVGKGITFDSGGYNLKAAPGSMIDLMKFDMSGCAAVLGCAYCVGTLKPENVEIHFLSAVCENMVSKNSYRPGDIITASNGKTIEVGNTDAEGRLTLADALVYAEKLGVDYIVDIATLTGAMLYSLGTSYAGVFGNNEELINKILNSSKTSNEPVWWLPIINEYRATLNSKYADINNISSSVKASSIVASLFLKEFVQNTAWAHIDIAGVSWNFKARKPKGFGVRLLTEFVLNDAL

[3] = CRF-BP/CRF-R2 complex antagonists, dose response, cell-based, uHTS hits, 384-well (AID 651639); assay type: functional, Homo sapiens; conditions: read-out: IC50_Mean
[4] = biological target: T3, Polyadenylate-binding protein 1 (Homo sapiens, UniProt P11940); experiment: PABP1 MLLE–PAM2 binding inhibitor potency, dose response, biochemical, fluorescence polarization, FITC-PAM2 peptide (AID 602259); assay type: functional; conditions: read-out: IC50_Mean
T3 sequence (P11940 whole entry): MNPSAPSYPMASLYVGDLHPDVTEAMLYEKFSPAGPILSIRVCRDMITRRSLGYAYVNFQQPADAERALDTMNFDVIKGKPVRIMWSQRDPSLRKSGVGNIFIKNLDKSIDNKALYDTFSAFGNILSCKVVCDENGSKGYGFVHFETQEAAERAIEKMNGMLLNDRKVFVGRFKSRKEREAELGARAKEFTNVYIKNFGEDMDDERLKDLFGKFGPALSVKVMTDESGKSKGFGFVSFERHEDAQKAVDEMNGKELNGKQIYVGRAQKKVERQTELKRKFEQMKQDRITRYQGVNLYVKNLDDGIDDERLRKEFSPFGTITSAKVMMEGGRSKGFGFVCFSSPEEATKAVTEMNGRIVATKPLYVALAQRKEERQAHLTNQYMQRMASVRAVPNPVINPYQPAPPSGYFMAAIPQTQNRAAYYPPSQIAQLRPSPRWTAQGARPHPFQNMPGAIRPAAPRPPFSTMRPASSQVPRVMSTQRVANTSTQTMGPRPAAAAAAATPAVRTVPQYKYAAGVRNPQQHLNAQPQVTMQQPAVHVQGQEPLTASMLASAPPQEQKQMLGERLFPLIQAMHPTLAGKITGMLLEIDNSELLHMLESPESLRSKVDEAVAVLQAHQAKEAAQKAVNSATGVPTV

[5] = biological target: T3, Polyadenylate-binding protein 1; experiment: PABP1 MLLE–PAM2 interaction inhibitors, dose response, miRNA deadenylation inhibitor project, biochemical, fluorescence polarization, Cy5-PAM2 peptide, secondary (AID 602260); assay type: functional; conditions: read-out: IC50_Mean
Genome polyprotein = Genome polyprotein (dengue virus type 2, UniProt P29990); experiment: Dengue-2 NS5 methyltransferase inhibitors, primary screen, biochemical, confirmation dose response (AID 588689); assay type: functional
Sequence of Genome polyprotein (P29990 2492-3391 limits assumed): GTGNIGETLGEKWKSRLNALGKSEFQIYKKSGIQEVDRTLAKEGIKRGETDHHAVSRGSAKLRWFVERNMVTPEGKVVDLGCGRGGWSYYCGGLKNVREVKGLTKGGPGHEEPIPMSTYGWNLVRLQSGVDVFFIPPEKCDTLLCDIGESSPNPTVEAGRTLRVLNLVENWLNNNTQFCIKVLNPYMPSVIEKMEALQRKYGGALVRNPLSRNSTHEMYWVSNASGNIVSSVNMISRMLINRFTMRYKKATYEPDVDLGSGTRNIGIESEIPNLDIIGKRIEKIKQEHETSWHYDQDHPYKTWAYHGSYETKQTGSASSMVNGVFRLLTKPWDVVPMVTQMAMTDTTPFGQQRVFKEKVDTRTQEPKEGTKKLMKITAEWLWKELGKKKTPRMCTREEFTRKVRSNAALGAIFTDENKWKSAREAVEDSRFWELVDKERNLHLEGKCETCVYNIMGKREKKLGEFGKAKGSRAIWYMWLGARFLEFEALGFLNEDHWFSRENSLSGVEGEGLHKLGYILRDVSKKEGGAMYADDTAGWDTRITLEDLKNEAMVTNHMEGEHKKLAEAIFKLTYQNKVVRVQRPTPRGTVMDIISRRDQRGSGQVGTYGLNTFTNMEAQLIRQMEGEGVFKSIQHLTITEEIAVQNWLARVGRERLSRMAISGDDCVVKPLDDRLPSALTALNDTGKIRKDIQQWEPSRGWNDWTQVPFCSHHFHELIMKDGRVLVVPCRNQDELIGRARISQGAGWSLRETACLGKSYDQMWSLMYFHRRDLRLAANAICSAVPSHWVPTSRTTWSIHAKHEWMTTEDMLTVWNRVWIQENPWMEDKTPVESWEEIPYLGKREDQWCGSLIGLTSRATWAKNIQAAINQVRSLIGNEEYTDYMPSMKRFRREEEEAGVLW

Fatty acid synthase [6] = biological target: T4, Fatty acid synthase (Homo sapiens, UniProt P49327); experiment: FAS thioesterase domain inhibitors, dose response, biochemical, endpoint fluorescence intensity, uHTS hits (AID 624327); assay type: functional;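 further: fluorescence from hydrolysis of an O-methyl fluorescein acyl ester substrate by the enzyme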
T4 sequence (P49327 whole entry, the tested form may be a part): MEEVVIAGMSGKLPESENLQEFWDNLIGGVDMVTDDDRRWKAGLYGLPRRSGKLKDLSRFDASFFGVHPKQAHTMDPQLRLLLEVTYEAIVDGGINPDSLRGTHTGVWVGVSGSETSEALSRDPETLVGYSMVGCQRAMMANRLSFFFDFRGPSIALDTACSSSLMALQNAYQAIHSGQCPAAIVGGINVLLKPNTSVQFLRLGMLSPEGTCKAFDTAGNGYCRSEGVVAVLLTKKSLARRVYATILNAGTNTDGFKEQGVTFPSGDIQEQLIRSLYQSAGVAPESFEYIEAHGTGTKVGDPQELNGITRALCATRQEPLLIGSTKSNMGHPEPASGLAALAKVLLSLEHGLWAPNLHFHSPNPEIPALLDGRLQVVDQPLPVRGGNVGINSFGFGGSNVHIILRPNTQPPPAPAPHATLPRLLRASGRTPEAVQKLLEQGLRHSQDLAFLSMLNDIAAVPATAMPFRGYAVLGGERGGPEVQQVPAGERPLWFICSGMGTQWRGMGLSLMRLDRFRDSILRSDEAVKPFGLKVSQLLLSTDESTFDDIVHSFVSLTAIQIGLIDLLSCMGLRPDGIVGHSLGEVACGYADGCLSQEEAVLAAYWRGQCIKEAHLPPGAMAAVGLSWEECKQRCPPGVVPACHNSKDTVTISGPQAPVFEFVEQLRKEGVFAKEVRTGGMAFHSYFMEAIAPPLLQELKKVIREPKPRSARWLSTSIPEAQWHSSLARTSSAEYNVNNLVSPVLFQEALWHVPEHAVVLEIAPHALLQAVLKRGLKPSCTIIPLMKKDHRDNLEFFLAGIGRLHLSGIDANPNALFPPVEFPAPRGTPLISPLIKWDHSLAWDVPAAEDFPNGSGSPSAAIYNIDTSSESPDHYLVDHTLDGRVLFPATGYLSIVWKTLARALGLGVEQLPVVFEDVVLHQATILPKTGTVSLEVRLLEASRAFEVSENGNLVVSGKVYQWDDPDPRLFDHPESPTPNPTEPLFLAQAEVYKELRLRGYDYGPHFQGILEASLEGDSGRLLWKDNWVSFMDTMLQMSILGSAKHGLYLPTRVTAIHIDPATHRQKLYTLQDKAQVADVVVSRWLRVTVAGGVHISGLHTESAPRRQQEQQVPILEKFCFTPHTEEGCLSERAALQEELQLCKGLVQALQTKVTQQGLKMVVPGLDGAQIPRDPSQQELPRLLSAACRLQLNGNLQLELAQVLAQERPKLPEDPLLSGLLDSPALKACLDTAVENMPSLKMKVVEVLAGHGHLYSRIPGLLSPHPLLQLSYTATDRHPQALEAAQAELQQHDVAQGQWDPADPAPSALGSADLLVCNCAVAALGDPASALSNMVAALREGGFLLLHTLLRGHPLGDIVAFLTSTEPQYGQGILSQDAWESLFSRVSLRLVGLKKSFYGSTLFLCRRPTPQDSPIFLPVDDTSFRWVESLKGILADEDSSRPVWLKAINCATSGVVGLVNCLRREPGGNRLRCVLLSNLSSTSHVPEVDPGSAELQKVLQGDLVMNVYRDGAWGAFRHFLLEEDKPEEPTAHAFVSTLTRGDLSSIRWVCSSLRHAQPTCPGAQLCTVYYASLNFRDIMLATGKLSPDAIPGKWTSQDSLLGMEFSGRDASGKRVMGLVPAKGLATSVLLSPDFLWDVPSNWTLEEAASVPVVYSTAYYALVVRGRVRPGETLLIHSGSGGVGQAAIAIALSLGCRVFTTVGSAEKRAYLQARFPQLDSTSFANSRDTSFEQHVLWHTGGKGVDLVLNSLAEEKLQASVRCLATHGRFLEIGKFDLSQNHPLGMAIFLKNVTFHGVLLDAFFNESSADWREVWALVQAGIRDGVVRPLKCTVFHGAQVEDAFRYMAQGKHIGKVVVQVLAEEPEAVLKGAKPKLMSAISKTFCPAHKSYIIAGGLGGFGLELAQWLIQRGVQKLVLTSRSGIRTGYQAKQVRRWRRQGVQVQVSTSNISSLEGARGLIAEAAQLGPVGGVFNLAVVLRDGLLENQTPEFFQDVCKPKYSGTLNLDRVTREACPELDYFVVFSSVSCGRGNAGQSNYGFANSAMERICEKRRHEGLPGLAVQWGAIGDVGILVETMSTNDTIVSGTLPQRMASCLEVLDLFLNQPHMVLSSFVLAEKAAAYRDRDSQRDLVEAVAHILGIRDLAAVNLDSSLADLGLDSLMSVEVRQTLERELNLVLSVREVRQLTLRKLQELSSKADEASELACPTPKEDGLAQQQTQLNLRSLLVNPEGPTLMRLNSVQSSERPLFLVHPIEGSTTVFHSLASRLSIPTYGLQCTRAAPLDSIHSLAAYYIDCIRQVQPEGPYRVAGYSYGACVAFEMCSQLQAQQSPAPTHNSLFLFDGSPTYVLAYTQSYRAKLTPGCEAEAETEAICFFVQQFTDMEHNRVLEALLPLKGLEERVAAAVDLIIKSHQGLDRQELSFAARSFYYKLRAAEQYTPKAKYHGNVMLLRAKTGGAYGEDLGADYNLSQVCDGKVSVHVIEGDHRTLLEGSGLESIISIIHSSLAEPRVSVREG

Fatty acid synthase [7] = biological target: T4, Fatty acid synthase; experiment: FAS thioesterase domain inhibitors, dose response, biochemical, kinetic fluorescence intensity (AID 624326); assay type: functional;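 further: rate of fluorescence rise from hydrolysis of a fluorogenic O-methyl fluorescein ester substrate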
BJ [8] = experiment: cells; assay type: functional, cell-based; conditions: Homo sapiens
[9] = cytotoxicity toward DRD oncogenic fibroblasts, dose response, cell-based, non-viral oncogenic, luminescence (AID 1934); assay type: functional; conditions: Homo sapiens
BJ [10] = experiment: cytotoxicity toward Ras-transformed BJeLR fibroblasts, dose response, cell-based, alamar blue fluorescence, cherrypicked samples (AID 2631); assay type: functional; conditions: Homo sapiens;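 further: confirmatory dose-response assay in RAS-dependent BJ fibroblasts engineered with TERT, LT and ST, with cytotoxicity read by fluorescence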
BJ [11] = experiment: cytotoxicity toward BJ-TERT-LT-ST fibroblasts, dose response, cell-based, RAS-independent, luminescence (AID 1935); assay type: functional; conditions: Homo sapiens;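 further: BJ fibroblasts immortalized with TERT plus LT and ST oncogenes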
BJ [12] = experiment: cytotoxicity toward BJ-TERT fibroblasts, dose response, cell-based, RAS-independent, luminescence (AID 1933); assay type: functional; conditions: Homo sapiens
HEK293 [13] = experiment: inhibitors of LMP1-driven NF-kB reporter, dose response, cell-based, HEK293, luciferase, cherry-pick (AID 588343); assay type: functional; conditions: Homo sapiens
HEK293 [14] = experiment: cells; assay type: functional, cell-based; conditions: Homo sapiens
HEK293 [15] = experiment: cells; assay type: functional, cell-based; conditions: Homo sapiens; remark: listed apart in the source
HEK293 [16] = experiment: NOD2 signaling inhibitors in MDP-stimulated cells, cell-based, uHTS, luminescence (AID 2001); assay type: functional; conditions: Homo sapiens
[17] = biological target: Nucleotide-binding oligomerization domain-containing protein 2 (Homo sapiens, UniProt Q9HC29); experiment: NOD2 signaling inhibitors, cell-based, luminescence, uHTS, HEK293 (AID 1566); assay type: functional
H4 = experiment: Luminescence Cell-Based Dose Response HTS to Identify Activators of 5'UTR Stem-Loop Driven Prion Protein mRNA Translation in H4 Neuroglioblastoma Cells. [Related pubchem assays: 1829 (Project Summary), 1814 (Primary HTS)]; assay type: functional; conditions: Homo sapiens
HEK293 [18] = experiment: NOD1 signaling inhibitors, primary screen, cell-based, luminescence, uHTS (AID 1578); assay type: functional; conditions: Homo sapiens
HEK293 [19] = experiment: cells; assay type: functional, cell-based; conditions: Homo sapiens; remark: listed apart in the source
[20] = cytotoxicity in HEK-293T cells, dose response, cytotoxicity control for TCR NF-kB inhibitor project, luminescence, T-cell screen hits (AID 489026); assay type: functional, cell-based;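 further: cells exposed to compound about 14 hours before the viability readout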
[21] = biological target: T5, Probable nicotinate-nucleotide adenylyltransferase (Staphylococcus aureus (strain N315), UniProt P65502); assay type: functional, Staphylococcus aureus subsp. aureus N315;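 on IC50 Mean: confirmatory dose-response retesting of NadD inhibitor hits first found in an ultra-high-throughput screen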
T5 sequence (P65502 whole entry): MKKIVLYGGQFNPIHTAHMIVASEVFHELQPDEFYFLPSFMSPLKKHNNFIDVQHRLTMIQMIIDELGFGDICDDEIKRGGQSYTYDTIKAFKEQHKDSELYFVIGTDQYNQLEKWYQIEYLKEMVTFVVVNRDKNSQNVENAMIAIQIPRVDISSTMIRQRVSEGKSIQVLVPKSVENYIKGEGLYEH

[22] = biological target: T5, Probable nicotinate-nucleotide adenylyltransferase; assay type: functional, Staphylococcus aureus subsp. aureus N315; conditions: read-out: IC50_Mean
[23] = biological target: T6, Short transient receptor potential channel 4 (Mus musculus, UniProt Q9QUQ5); experiment: mouse TRPC4 channel inhibitors, dose response, cell-based, HEK293 TRPC4/mu-opioid, Fluo-4 calcium (AID 434942); assay type: functional;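 further: potency of inhibitors blocking the TRPC4 calcium response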
T6 sequence (Q9QUQ5 whole entry): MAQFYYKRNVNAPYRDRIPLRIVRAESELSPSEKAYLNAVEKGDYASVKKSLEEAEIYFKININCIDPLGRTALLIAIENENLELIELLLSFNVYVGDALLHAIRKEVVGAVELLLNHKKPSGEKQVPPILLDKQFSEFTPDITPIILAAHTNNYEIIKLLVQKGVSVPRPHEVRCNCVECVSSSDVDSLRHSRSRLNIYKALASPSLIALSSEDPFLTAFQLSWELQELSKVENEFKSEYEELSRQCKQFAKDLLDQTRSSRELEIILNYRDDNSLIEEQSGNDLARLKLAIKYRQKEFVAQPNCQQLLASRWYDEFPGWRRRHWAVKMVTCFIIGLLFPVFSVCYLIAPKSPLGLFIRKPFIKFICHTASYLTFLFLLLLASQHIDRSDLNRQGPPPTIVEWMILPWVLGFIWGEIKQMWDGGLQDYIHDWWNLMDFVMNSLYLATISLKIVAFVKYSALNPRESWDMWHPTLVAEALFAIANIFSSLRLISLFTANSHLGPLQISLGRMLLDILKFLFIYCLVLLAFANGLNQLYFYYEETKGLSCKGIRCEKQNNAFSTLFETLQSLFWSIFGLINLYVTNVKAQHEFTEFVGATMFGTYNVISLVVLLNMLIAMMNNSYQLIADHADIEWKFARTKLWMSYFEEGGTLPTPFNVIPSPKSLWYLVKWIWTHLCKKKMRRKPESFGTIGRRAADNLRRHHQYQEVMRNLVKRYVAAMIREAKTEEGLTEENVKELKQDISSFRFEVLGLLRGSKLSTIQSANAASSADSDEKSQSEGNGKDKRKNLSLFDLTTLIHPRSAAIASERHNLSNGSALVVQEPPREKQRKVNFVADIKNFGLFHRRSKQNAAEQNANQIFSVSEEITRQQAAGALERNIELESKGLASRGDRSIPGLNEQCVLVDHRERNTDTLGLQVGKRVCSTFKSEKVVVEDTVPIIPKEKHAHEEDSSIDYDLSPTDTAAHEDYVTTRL

With `O=C(COc1ccc2ccccc2c1)Nc1cccc(C(=O)Nc2ccccc2C(=O)O)c1` the EC50 [1] was > 53 µM (inactive), the IC50 [2] was 2.55 µM (active) and the IC50 (Leucine aminopeptidase) was 8.71 µM (active). For the same compound, the IC50 [3] was 7.44 µM (active).

For `CCC(=O)N(Cc1c(C)nn(-c2ccccc2)c1Cl)c1ccc(Cl)cc1`, the EC50 [1] was > 53 µM (inactive), the IC50 [2] was 7.02 µM (active) and the IC50 [3] was 19.8 µM (active).

For `COc1ccc(Nc2cc(Cl)ccc2C(=O)O)cn1`, the IC50 [4] was 52.2 µM (inactive), the IC50 [5] was > 66 µM (inactive) and the IC50 (Genome polyprotein) was 63.5 µM (active).

With `CCOC(=O)c1sc(N2C(=O)C(O)=C(C(=O)c3ccco3)C2c2ccc([N+](=O)[O-])cc2)nc1C` (stereo unspecified) the IC50 (Fatty acid synthase [6]) was 5.46 µM (active), the IC50 (Fatty acid synthase [7]) was 7.89 µM (active) and the IC50 (Genome polyprotein) was 38.1 µM (active).

In the case of `COc1ccc(NC(=O)CN(C)S(=O)(=O)c2ccc3nc(O)oc3c2)cc1`, the EC50 (BJ [8]) is reported as > 150 µM (not active), the EC50 [9] is reported as > 150 µM (not active) and the EC50 (BJ [10]) is reported as > 133 µM (inactive). The EC50 (BJ [11]) was 47.8 µM (active) and the EC50 (BJ [12]) was > 150 µM (not active).

For `O=C(c1ccc(COc2ccccc2Cl)o1)N1CCCC1`, the AC50 (HEK293 [13]) was 77.8 µM (active).

With `CCS(=O)(=O)c1nnnn1-c1ccccc1S(C)(=O)=O` the IC50 (HEK293 [14]) was 6.55 µM (active), the IC50 (HEK293 [15]) was > 20 µM (inactive) and the IC50 (HEK293 [16]) was 9.2 µM (active). For the same compound, the EC50 [17] was > 20 µM (inactive), the EC50 (H4) was > 120 µM (not active) and the EC50 (HEK293 [18]) was 11.7 µM (active). The IC50 (HEK293 [19]) was > 20 µM (inactive) and the AC50 (HEK293 [13]) was 11.3 µM (active).

In the case of `Cc1ccc2[nH]c3c(c2c1)CCCC3NC(=O)CCl` (stereo unspecified), the EC50 (BJ [8]) is reported as 8.7 µM (active), the EC50 [9] is reported as 7.41 µM (inconclusive) and the EC50 (BJ [10]) is reported as 0.565 µM (active). For the same compound, the IC50 [20] was > 80 µM (inactive), the EC50 (BJ [11]) was > 150 µM (inconclusive) and the EC50 (BJ [12]) was 13.8 µM (active). The AC50 (HEK293 [13]) was 2.36 µM (active).

For `N#C/C(=C/c1cn(-c2ccccc2)nc1-c1cccc(S(=O)(=O)N2CCCC2)c1)C(=O)NCc1ccco1`, the IC50 [21] was 14.4 µM (active) and the IC50 [22] was 50.1 µM (active).

For `Cc1cc([N+](=O)[O-])ccc1NCc1ccco1`, the EC50 [1] was > 53 µM (inactive), the IC50 [2] was 23.1 µM (active) and the EC50 [23] was 5.96 µM (active). The IC50 [3] was 7.36 µM (active).

In the case of `CCCCN(CCCC)c1ccc(C(=O)c2ccccc2C(=O)O)c(O)c1`, the IC50 (Genome polyprotein) is reported as 44.1 µM (active).

For `COc1ccc(Cl)cc1NC(=O)CN(C)S(=O)(=O)c1cccs1`, the AC50 (HEK293 [13]) was 51.2 µM (active).

With `COC(=O)c1cc(C#N)c(NCc2ccccc2)nc1C` the EC50 [1] was > 53 µM (inactive), the IC50 [2] was 8.02 µM (active) and the IC50 [3] was > 20 µM (inactive).

With `O=C(O)/C(=C\c1c(C(=O)O)[nH]c2cc(Cl)cc(Cl)c12)c1ccccc1` the IC50 (Genome polyprotein) was 75.5 µM (active).
